The structures appear in SMILES notation.

Assay [1] has as its target T1, Human PDGFRα, cytoplasmic domain (GST-PDGFRα) (Homo sapiens, UniProt P16234).
T1 construct: made in house
In words: Human PDGFRα biochemical inhibition assay (off-chip Mobility Shift Assay).

For assay [2], the target named is T2, Human PDGFRβ, cytoplasmic domain (GST-PDGFRβ) (Homo sapiens, UniProt P09619).
T2 construct: made in house
In words: Human PDGFRβ biochemical inhibition assay (off-chip Mobility Shift Assay). The method, boiled down:
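GST-tagged cytoplasmic domain (aa 557-1106) from baculovirus was incubated 1 h at room temperature with compound, CSKtide, ATP at Km and Mg²⁺ in HEPES buffer, pH 7.5. Phosphorylated and unphosphorylated peptide were separated by off-chip mobility shift, and the product ratio P/(P+S) gave percent inhibition.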

T1 sequence (P16234 550-1089 T674I): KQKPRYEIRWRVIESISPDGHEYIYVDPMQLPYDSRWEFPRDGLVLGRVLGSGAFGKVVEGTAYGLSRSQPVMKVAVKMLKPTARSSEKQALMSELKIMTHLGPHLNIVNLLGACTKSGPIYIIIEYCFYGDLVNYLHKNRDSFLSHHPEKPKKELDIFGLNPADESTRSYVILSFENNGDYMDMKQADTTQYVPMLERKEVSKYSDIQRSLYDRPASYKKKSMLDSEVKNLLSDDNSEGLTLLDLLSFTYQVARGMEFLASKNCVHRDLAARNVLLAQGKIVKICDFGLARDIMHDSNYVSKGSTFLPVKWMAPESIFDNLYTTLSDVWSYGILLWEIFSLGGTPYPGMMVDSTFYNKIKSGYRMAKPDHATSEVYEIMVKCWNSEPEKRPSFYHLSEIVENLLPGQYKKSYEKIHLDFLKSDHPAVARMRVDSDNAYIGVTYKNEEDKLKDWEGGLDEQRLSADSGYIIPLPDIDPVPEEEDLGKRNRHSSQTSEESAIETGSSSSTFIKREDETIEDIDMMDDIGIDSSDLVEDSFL
T2 sequence (P09619 with tags, fused parts or gaps): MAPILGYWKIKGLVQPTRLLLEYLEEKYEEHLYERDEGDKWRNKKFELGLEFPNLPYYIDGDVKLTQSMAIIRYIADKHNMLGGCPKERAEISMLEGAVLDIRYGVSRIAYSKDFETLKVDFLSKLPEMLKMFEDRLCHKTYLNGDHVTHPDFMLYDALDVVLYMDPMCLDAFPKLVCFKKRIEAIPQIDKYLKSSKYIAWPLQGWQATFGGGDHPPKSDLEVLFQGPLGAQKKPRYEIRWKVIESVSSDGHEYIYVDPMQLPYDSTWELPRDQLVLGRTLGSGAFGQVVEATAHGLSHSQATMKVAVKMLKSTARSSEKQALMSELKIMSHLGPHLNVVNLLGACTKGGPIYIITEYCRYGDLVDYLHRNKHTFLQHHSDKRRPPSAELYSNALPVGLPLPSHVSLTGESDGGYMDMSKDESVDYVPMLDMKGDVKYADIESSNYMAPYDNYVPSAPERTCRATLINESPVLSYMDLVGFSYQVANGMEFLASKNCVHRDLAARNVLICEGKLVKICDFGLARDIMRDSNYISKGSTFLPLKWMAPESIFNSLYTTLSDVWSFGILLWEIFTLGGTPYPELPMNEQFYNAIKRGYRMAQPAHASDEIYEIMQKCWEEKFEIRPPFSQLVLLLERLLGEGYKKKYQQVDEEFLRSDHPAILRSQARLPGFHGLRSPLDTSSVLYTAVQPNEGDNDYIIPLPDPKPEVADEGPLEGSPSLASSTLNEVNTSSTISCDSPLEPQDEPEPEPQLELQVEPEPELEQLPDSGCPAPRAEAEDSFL

For `Cc1cc2ncc(N[C@@H](C)c3cc(NC(=O)c4ccc(C5CC5)nc4)ccc3F)nc2s1` [Compound 612, (S)-6-cyclopropyl-N-(4-fluoro-3-(1-((6-methylthieno[2,3-b]pyrazin-3-yl)amino)ethyl)phenyl)nicotinamide], the IC50 in assay [1] and in assay [2] was less than 300 nM in each case.
As to `CCn1cc2ncc(N[C@@H](C)c3cccc(NC(=O)c4ccc(N(C)C)nc4)c3)nc2n1` [Compound 377, (S)-6-(dimethylamino)-N-(3-(1-((2-ethyl-2H-pyrazolo[3,4-b]pyrazin-6-yl)amino)ethyl)phenyl)nicotinamide], the IC50 in assay [1] and in assay [2] was 300 to 1000 nM each time.
For the compound `Cc1cncc(C(=O)Nc2ccc(F)c([C@H](C)Nc3cnc4cn(CC5CCNC5)nc4n3)c2)c1` (stereo partly drawn) [Compound 410, N-(4-fluoro-3-((1S)-1-((2-(pyrrolidin-3-ylmethyl)-2H-pyrazolo[3,4-b]pyrazin-6-yl)amino)ethyl)phenyl)-5-methylnicotinamide], the IC50 in assay [1] and in assay [2] was less than 300 nM each time.
For `Cc1cncc(C(=O)Nc2cccc([C@H](C)Nc3cnc4cn(CCN5CCOCC5)nc4n3)c2)c1` [Compound 278, (S)-5-methyl-N-(3-(1-((2-(2-morpholinoethyl)-2H-pyrazolo[3,4-b]pyrazin-6-yl)amino)ethyl)phenyl) nicotinamide], the IC50 was 300 to 1000 nM in assay [1] and no less than 1000 nM in assay [2].
For the compound `CCn1cc2ncc(N[C@@H](C)c3cccc(NC(=O)c4ccc(CN5CCN(C6CC6)CC5)c(C)c4)c3)nc2n1` [Compound 462, (S)-4-((4-cyclopropylpiperazin-1-yl)methyl)-N-(3-(1-((2-ethyl-2H-pyrazolo[3,4-b]pyrazin-6-yl)amino)ethyl)phenyl)-3-methylbenzamide], the IC50 in assay [1] and in assay [2] was less than 300 nM each time.
Consider `CCn1cc2ncc(N[C@@H](C)c3cccc(NC(=O)c4ccc(OC(F)(F)F)nc4)c3)nc2n1` [Compound 282, (S)-N-(3-(1-((2-ethyl-2H-pyrazolo[3,4-b]pyrazin-6-yl)amino)ethyl)phenyl)-6-(trifluoromethoxy)nicotinamide], for which the IC50 in assay [1] was less than 300 nM; in assay [2], 300 to 1000 nM.
In the case of `Cc1c[nH]c2ncc(N[C@@H](C)c3cccc(NC(=O)c4cnn(C(F)F)c4)c3)nc12` [Compound 561, (S)-1-(difluoromethyl)-N-(3-(1-((7-methyl-5H-pyrrolo[2,3-b]pyrazin-2-yl)amino)ethyl)phenyl)-1H-pyrazole-4-carboxamide], the IC50 in assay [1] and in assay [2] was less than 300 nM throughout.
Take `CCn1cc2ncc(N[C@@H](C)c3cc(NC(=O)c4ccc(OC5CCN(C)CC5)c(C)c4)ccc3F)nc2n1` [Compound 447, (S)-N-(3-(1-((2-ethyl-2H-pyrazolo[3,4-b]pyrazin-6-yl)amino)ethyl)-4-fluorophenyl)-3-methyl-4-((1-methylpiperidin-4-yl)oxy)benzamide]: the IC50 in assay [1] and in assay [2] was less than 300 nM in each case.
As for `Cc1cc2ncc(N[C@@H](C)c3cc(NC(=O)c4ccc(OC(F)F)nc4)ccc3F)nc2s1` [Compound 611, (S)-6-(difluoromethoxy)-N-(4-fluoro-3-(1-((6-methylthieno[2,3-b]pyrazin-3-yl)amino)ethyl)phenyl) nicotinamide], the IC50 in assay [1] and in assay [2] was less than 300 nM in each case.
Turning to `CCn1cc2ncc(N[C@@H](C)c3cc(NC(=O)Cc4ccc(C5CC5)cn4)ccc3C)nc2n1` [Compound 662, (S)-2-(5-cyclopropylpyridin-2-yl)-N-(3-(1-((2-ethyl-2H-pyrazolo[3,4-b]pyrazin-6-yl)amino)ethyl)-4-methylphenyl) acetamide], the results for the IC50 in assay [1] and in assay [2] were less than 300 nM and no less than 1000 nM, respectively.
With `CCn1cc2ncc(N[C@@H](C)c3cccc(NC(=O)Cc4cccc(C(F)(F)F)c4)c3)nc2n1` [Compound 630, (S)-N-(3-(1-((2-ethyl-2H-pyrazolo[3,4-b]pyrazin-6-yl)amino)ethyl)phenyl)-2-(3-(trifluoromethyl)phenyl) acetamide], the IC50 in assay [1] is less than 300 nM; in assay [2] it was 300 to 1000 nM.
As for `CCn1cc2ncc(N[C@@H](C)c3cc(NC(=O)c4cnc(N5CCN(C)CC5)c(Cl)c4)ccc3F)nc2n1` [Compound 456, (S)-5-chloro-N-(3-(1-((2-ethyl-2H-pyrazolo[3,4-b]pyrazin-6-yl)amino)ethyl)-4-fluorophenyl)-6-(4-methylpiperazin-1-yl) nicotinamide], the IC50 in assay [1] and in assay [2] was less than 300 nM each time.
For `CCn1cc2ncc(N[C@@H](C)c3cccc(NC(=O)Cc4cc(C)c(F)cn4)c3)nc2n1` [Compound 686, (S)-N-(3-(1-((2-ethyl-2H-pyrazolo[3,4-b]pyrazin-6-yl)amino)ethyl)phenyl)-2-(5-fluoro-4-methylpyridin-2-yl) acetamide], the IC50 in assay [1] was less than 300 nM; in assay [2] it was 300 to 1000 nM.
For the compound `CCn1cc2ncc(N[C@@H](C)c3cccc(NC(=O)Cc4cccc(F)c4)c3)nc2n1` [Compound 625, (S)-N-(3-(1-((2-ethyl-2H-pyrazolo[3,4-b]pyrazin-6-yl)amino)ethyl)phenyl)-2-(3-fluorophenyl)acetamide], the IC50 in assay [1] was less than 300 nM; in assay [2], 300 to 1000 nM.
For the compound `C#Cc1cncc(C(=O)Nc2cccc([C@H](C)Nc3cnc4cnn(C)c4n3)c2)c1` [Compound 113, (S)-5-ethynyl-N-(3-(1-((1-methyl-1H-pyrazolo[3,4-b]pyrazin-6-yl)amino)ethyl)phenyl)nicotinamide], the IC50 in assay [1] is less than 300 nM; in assay [2] it was 300 to 1000 nM.
For `CCn1cc2ncc(N[C@@H](C)c3cccc(NC(=O)c4cnc(C(F)F)c(C)c4)c3)nc2n1` [Compound 353] the same measures were less than 300 nM and less than 300 nM.
With `CCn1cc2ncc(N[C@@H](C)c3cccc(NC(=O)c4cnc(C(N)=O)s4)c3)nc2n1` [Compound 365, (S)-N5-(3-(1-((2-ethyl-2H-pyrazolo[3,4-b]pyrazin-6-yl)amino)ethyl)phenyl)thiazole-2,5-dicarboxamide], the 50% inhibitory concentration (IC50) in assay [1] and in assay [2] was less than 300 nM throughout.
Take `Cc1cncc(C(=O)Nc2cccc([C@H](C)Nc3cnc4ccc(-c5cnn(C)c5)cc4n3)c2)c1` [Compound 42, (S)-5-methyl-N-(3-(1-((7-(1-methyl-1H-pyrazol-4-yl)quinoxalin-2-yl)amino)ethyl)phenyl)nicotinamide]: the IC50 in assay [1] and in assay [2] was less than 300 nM each time.
For the compound `CCOc1ccc(C(=O)Nc2cccc([C@H](C)Nc3cnc4[nH]cc(C)c4n3)c2)cn1` [Compound 570, (S)-6-ethoxy-N-(3-(1-((7-methyl-5H-pyrrolo[2,3-b]pyrazin-2-yl)amino)ethyl)phenyl)nicotinamide], the concentration for half-maximal inhibition (IC50) in assay [1] and in assay [2] was less than 300 nM each time.
As for `Cc1cc2ncc(N[C@@H](C)c3cccc(NC(=O)c4ccc(C5CC5)nc4)c3)nc2s1` [Compound 610, (S)-6-cyclopropyl-N-(3-(1-((6-methylthieno[2,3-b]pyrazin-3-yl)amino)ethyl)phenyl) nicotinamide], the IC50 in assay [1] and in assay [2] was less than 300 nM each time.
Regarding `C[C@H](Nc1cnc2cnn(C)c2n1)c1cccc(NC(=O)c2cnc3ncn(C)c3c2)c1` [Compound 77, (S)-1-methyl-N-(3-(1-((1-methyl-1H-pyrazolo[3,4-b]pyrazin-6-yl)amino)ethyl)phenyl)-1H-imidazo[4,5-b] pyridine-6-carboxamide], the IC50 was less than 300 nM in assay [1] and 300 to 1000 nM in assay [2].
Turning to `Cc1cncc(C(=O)Nc2cccc([C@H](C)Nc3cnc4[nH]nc(C)c4c3)c2)c1` [Compound 14, (S)-5-methyl-N-(3-(1-((3-methyl-1H-pyrazolo[3,4-b]pyridin-5-yl)amino)ethyl)phenyl)nicotinamide], the half-maximal inhibitory concentration (IC50) in assay [1] and in assay [2] was less than 300 nM in each case.
For `CCn1cc(C(=O)Nc2cccc([C@H](C)Nc3cnc4[nH]cc(C)c4n3)c2)cn1` [Compound 574, (S)-1-ethyl-N-(3-(1-((7-methyl-5H-pyrrolo[2,3-b]pyrazin-2-yl)amino)ethyl)phenyl)-1H-pyrazole-4-carboxamide], the IC50 in assay [1] and in assay [2] was less than 300 nM throughout.
Consider `CCn1cc2ncc(N[C@@H](C)c3cc(NC(=O)c4cnc(F)c(C)c4)ccc3C)nc2n1` [Compound 512, (S)-N-(3-(1-((2-ethyl-2H-pyrazolo[3,4-b]pyrazin-6-yl)amino)ethyl)-4-methylphenyl)-6-fluoro-5-methylnicotinamide], for which the IC50 in assay [1] and in assay [2] was less than 300 nM each time.
As to `CCn1cc2ncc(N[C@@H](C)c3cc(NC(=O)Cc4cnc(C)c(F)c4)ccc3F)nc2n1` [Compound 706, (S)-N-(3-(1-((2-ethyl-2H-pyrazolo[3,4-b]pyrazin-6-yl)amino)ethyl)-4-fluorophenyl)-2-(5-fluoro-6-methylpyridin-3-yl) acetamide], the IC50 in assay [1] was less than 300 nM; in assay [2], no less than 1000 nM.
As for `CCOc1ncc(C(=O)Nc2cccc([C@H](C)Nc3cnc4cnn(C)c4n3)c2)cc1C` [Compound 129, (S)-6-ethoxy-5-methyl-N-(3-(1-((1-methyl-1H-pyrazolo[3,4-b]pyrazin-6-yl)amino)ethyl)phenyl)nicotinamide], the IC50 in assay [1] and in assay [2] was less than 300 nM throughout.
For the compound `CCn1cc2ncc(N[C@@H](C)c3cccc(NC(=O)c4cnc(NC(C)=O)s4)c3)nc2n1` [Compound 370, (S)-2-acetamido-N-(3-(1-((2-ethyl-2H-pyrazolo[3,4-b]pyrazin-6-yl)amino)ethyl)phenyl)thiazole-5-carboxamide], the IC50 in assay [1] was 300 to 1000 nM; in assay [2] it was no less than 1000 nM.
The corresponding values for `Cc1cc(C(=O)Nc2cccc([C@H](C)Nc3cnc4cnn(C)c4n3)c2)ccc1C(=O)OCCO` [Compound 257, 2-hydroxyethyl (S)-2-methyl-4-((3-(1-((1-methyl-1H-pyrazolo[3,4-b]pyrazin-6-yl)amino)ethyl)phenyl)carbamoyl) benzoate] are less than 300 nM and less than 300 nM.

A word on the IC50: it is the concentration that gives 50% inhibition.
